The results in this text go back to US6486191B2 (priority 1997, dated 2002).

In brackets after ≈: the same amount, converted by molar mass.

The subject of one assay is Penicillium brevicaule. In words: Material protection test (MIC on malt extract agar). The settings on record: 336 h, two weeks at 27° C., 60 to 70% relative humidity, read-out: Minimum inhibitory concentration (MIC value). Type of assay: cell-based.
A further assay relates to Chaetomium globosum. The assay is described as above. Type of assay: cell-based. The settings on record: 336 h, two weeks at 27° C., 60 to 70% relative humidity, read-out: Minimum inhibitory concentration (MIC value).
A further assay concerns Aspergillus niger. The assay is described as above. The format is cell-based. As to conditions: 336 h, two weeks at 27° C., 60 to 70% relative humidity, read-out: Minimum inhibitory concentration (MIC value).
Assay [1] relates to larvae of the horseradish beetle (Phaedon cochleariae). In words: Phaedon larvae test. The format is in vivo. The settings on record: cabbage leaves immersed, active substance concentration 0.1 % by weight. The procedure:
(§1) Solvent: 7 parts by weight of dimethylformamide
(§2) Emulsifier: 1 part by weight of alkylaryl polyglycol ether
For the preparation of an expedient fonnulation of active substance, 1 part by weight of active substance is mixed with the stated amounts of solvent and emulsifier, and the concentrate is diluted to the desired concentration with water.
Cabbage leaves (Brassica oleracea) are treated by immersion in the formulation of active substance of the desired concentration and infested with larvae of the horseradish beetle (Phaedon cochleariae) as long as the leaves are still moist.
After the desired time, the kill in % is determined. 100% means that all beetle larvae were killed; 0% means that no beetle larvae were killed.

The subject of assay [2] is caterpillars of the diamondback moth (Plutella xylostella). Kind of assay: Plutella test. The format is in vivo. The settings on record: cabbage leaves immersed, active substance concentration 0.1 % by weight. The procedure:
as §1, §2
For the preparation of an expedient formulation of active substance, 1 part by weight of active substance is mixed with the stated amounts of solvent and emulsifier, and the concentrate is diluted to the desired concentration with water.
Cabbage leaves (Brassica oleracea) are treated by immersion in the formulation of active substance of the desired concentration and infested with caterpillars of the diamondback moth (Plutella xylostella) as long as the leaves are still moist.
After the desired time, the kill in % is determined. 100% means that all caterpillars were killed; 0% means that no caterpillars were killed.

As to `Cc1ccc(S(=O)(=O)n2c(C#N)nc3cc4c(cc32)OC(F)(F)C(F)(F)O4)cc1[N+](=O)[O-]` [Example 2], the values for the MIC in the assay with Penicillium brevicaule, with Chaetomium globosum and in the assay on Aspergillus niger were 100 µg/mL (≈ 212 µM), 100 µg/mL (≈ 212 µM) and 200 µg/mL (≈ 423 µM), respectively.

For the compound `Cc1ccc([N+](=O)[O-])cc1S(=O)(=O)n1c(C#N)nc2cc3c(cc21)OC(F)(F)C(F)(F)O3` [Example 5], the MIC with Penicillium brevicaule is 100 µg/mL (≈ 212 µM); with Chaetomium globosum it was 100 µg/mL (≈ 212 µM); in the assay with Aspergillus niger it was 200 µg/mL (≈ 423 µM).

Regarding `Cc1ccc(S(=O)(=O)n2c(C#N)nc3cc4c(cc32)OC(F)(F)C(F)(F)O4)cc1[N+](=O)[O-]` [drawing 67], the “Kill in % after 7 d” value in assay [1] was found to be 100%.

Take `Cc1ccc([N+](=O)[O-])cc1S(=O)(=O)n1c(C#N)nc2cc3c(cc21)OC(F)(F)C(F)(F)O3` [drawing 68]: in assay [1], the “Kill in % after 7 d” value was found to be 100%.

As for `Cc1ccc(S(=O)(=O)n2c(C#N)nc3cc4c(cc32)OC(F)(F)C(F)(F)O4)cc1[N+](=O)[O-]` [drawing 69], the “Kill in % after 7 d” value in assay [2] is on record as 100%.

In the case of `Cc1ccc([N+](=O)[O-])cc1S(=O)(=O)n1c(C#N)nc2cc3c(cc21)OC(F)(F)C(F)(F)O3` [drawing 70], the “Kill in % after 7 d” value in assay [2] worked out at 100%.
